pIC50: −log10 of the molar value. Where a SMILES comes first, the peptide text is derived from it. Bridges are numbered along the chain shown (N, C = ends). [ ]: non-standard residue; d: D form. The star is where a group is joined. X1 = O=C(O)CCCCCCCCCCCCCCCCC(=O)N[C@@H](CCC(=O)NCCOCCOCCOCCOCCOCCOCCOCCOCCOCCOCCOCCn1cc(C*)nn1)C(=O)O; Bip = N[C@@H](Cc1ccc(-c2ccccc2)cc1)C(=O)O; Phe(3-Me) = Cc1cccc(C[C@H](N)C(=O)O)c1; Cha = N[C@@H](CC1CCCCC1)C(=O)O; Carboxymethyl = O=C(O)C*; Orn = NCCC[C@H](N)C(=O)O; Dab = NCC[C@H](N)C(=O)O; Dap = NC[C@H](N)C(=O)O
Target: T1, human PD-1 (Jurkat-PD-1 cells; binding of PE-labeled human PD-L1-Ig) (Homo sapiens, UniProt Q15116)
T1 construct: expressed in transfected cells; host or cells: Jurkat (Jurkat-PD-1 / Jurkat-hPD-1)
Experiment: Jurkat-PD-1 Cell Binding High-Content Screening Assay
Conditions: Jurkat cell line over-expressing human PD-1; compound 2 h at 37° C., then PE-labeled PD-L1-Ig 20 nM final, 1 hour; read-out: Jurkat hPD1 PDL1 IC50
Description: The ability of the compounds of formula (I) to bind to PD-1 was investigated using a Jurkat-PD-1 Cell Binding High-Content Screening Assay.
Phycoerythrin (PE) was covalently linked to the Ig epitope tag of human PD-L1-Ig and fluorescently-labeled PD-L1-Ig was used for binding studies with a Jurkat cell line over-expressing human PD-1 (Jurkat-PD-1). Briefly, 8×10^3 Jurkat-hPD-1 cells were seeded into 384 well plates in 20 μl of DIVEM supplemented with 10% fetal calf serum. 100 nl of compound was added to cells followed by incubation at 37° C. for 2 h. Then, 5 μl of PE-labeled PD-L1-Ig (20 nM final), diluted in DiVEM supplemented with 10 fetal calf serum. After 1 hour incubation, cells were fixed with […] in dPBS containing 10 µg/mL Hoechst 33342 and then washed 3× in 100 μl dPB S. Data was collected and processed using a Cell Insight NXT High Content Imager and associated software.

T1 sequence (Q15116 25-288): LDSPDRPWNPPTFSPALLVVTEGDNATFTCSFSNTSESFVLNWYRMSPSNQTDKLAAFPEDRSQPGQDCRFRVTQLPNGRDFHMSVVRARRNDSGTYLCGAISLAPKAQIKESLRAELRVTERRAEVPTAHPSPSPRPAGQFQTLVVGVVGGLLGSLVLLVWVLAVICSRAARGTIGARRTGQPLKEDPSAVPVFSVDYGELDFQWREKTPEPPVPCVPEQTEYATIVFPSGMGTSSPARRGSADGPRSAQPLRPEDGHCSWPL

Row | pIC50 | Compound
1 | 6.80 | Cc1cccc(C[C@@H]2NC(=O)[C@H](CC(=O)O)NC(=O)[C@H](Cc3ccc(OCC(=O)O)cc3)NC(=O)[C@H](CN)NC(=O)CSC[C@@H](C(=O)N[C@@H](CCN)C(N)=O)NC(=O)[C@H](CCC(=O)O)NC(=O)[C@H](C(C)C)NC(=O)[C@H](CC3CCCCC3)NC(=O)[C@H](CCN)NC(=O)[C@@H](CC(C)C)NC(=O)[C@H](CCCN)NC(=O)[C@H](Cc3ccc(OCc4cn(CCOCCOCCOCCOCCOCCOCCOCCOCCOCCOCCOCCNC(=O)CC[C@H](NC(=O)CCCCCCCCCCCCCCCCC(=O)O)C(=O)O)nn4)cc3)NC(=O)[C@H](Cc3ccc(-c4ccccc4)cc3)NC(=O)[C@H](Cc3ccc(OCC(=O)O)cc3)NC2=O)c1 [Compound 1001] ({CH2CO}-[Dap]Y(Carboxymethyl)D[Phe(3-Me)]Y(Carboxymethyl)[Bip]Y(X1)[Orn][dL][Dab][Cha]VEC[Dab]-NH2; thioether N-14 (inferred))
2 | 6.85 | Cc1cccc(C[C@@H]2NC(=O)[C@H](CC(=O)O)NC(=O)[C@H](Cc3ccc(OCC(=O)O)cc3)NC(=O)[C@H](CCCNC(=N)N)NC(=O)CSC[C@@H](C(=O)N[C@@H](CCN)C(N)=O)NC(=O)[C@H](CCC(=O)O)NC(=O)[C@H](C(C)C)NC(=O)[C@H](CC3CCCCC3)NC(=O)[C@H](CCN)NC(=O)[C@@H](CC(C)C)NC(=O)[C@H](CCCN)NC(=O)[C@H](Cc3ccc(OCc4cn(CCOCCOCCOCCOCCOCCOCCOCCOCCOCCOCCOCCNC(=O)CC[C@H](NC(=O)CCCCCCCCCCCCCCCCC(=O)O)C(=O)O)nn4)cc3)NC(=O)[C@H](Cc3ccc(-c4ccccc4)cc3)NC(=O)[C@H](Cc3ccc(OCC(=O)O)cc3)NC2=O)c1 [Compound 1002] ({CH2CO}-RY(Carboxymethyl)D[Phe(3-Me)]Y(Carboxymethyl)[Bip]Y(X1)[Orn][dL][Dab][Cha]VEC[Dab]-NH2; thioether N-14)
3 | 6.96 | Cc1cccc(C[C@@H]2NC(=O)[C@H](CC(=O)O)NC(=O)[C@H](Cc3ccc(OCC(=O)O)cc3)NC(=O)[C@H](CN)NC(=O)CSC[C@@H](C(=O)N[C@@H](CCN)C(N)=O)NC(=O)[C@H](CCC(=O)O)NC(=O)[C@H](C(C)C)NC(=O)[C@H](CC3CCCCC3)NC(=O)[C@H](CCN)NC(=O)[C@@H](CC(C)C)NC(=O)[C@H](CCCN)NC(=O)[C@H](Cc3ccc(OCC(=O)O)cc3)NC(=O)[C@H](Cc3ccc(-c4ccccc4)cc3)NC(=O)[C@H](Cc3ccc(OCc4cn(CCOCCOCCOCCOCCOCCOCCOCCOCCOCCOCCOCCNC(=O)CC[C@H](NC(=O)CCCCCCCCCCCCCCCCC(=O)O)C(=O)O)nn4)cc3)NC2=O)c1 [Compound 1004] ({CH2CO}-[Dap]Y(Carboxymethyl)D[Phe(3-Me)]Y(X1)[Bip]Y(Carboxymethyl)[Orn][dL][Dab][Cha]VEC[Dab]-NH2; thioether N-14)

Row | Compound | pIC50
4 | Cc1cccc(C[C@@H]2NC(=O)[C@H](CC(=O)O)NC(=O)[C@H](Cc3ccc(OCC(=O)O)cc3)NC(=O)[C@H](CCCNC(=N)N)NC(=O)CSC[C@@H](C(=O)N[C@@H](CCN)C(N)=O)NC(=O)[C@H](CCC(=O)O)NC(=O)[C@H](C(C)C)NC(=O)[C@H](CC3CCCCC3)NC(=O)[C@H](CCN)NC(=O)[C@@H](CC(C)C)NC(=O)[C@H](CCCN)NC(=O)[C@H](Cc3ccc(OCC(=O)O)cc3)NC(=O)[C@H](Cc3ccc(-c4ccccc4)cc3)NC(=O)[C@H](Cc3ccc(OCc4cn(CCOCCOCCOCCOCCOCCOCCOCCOCCOCCOCCOCCNC(=O)CC[C@H](NC(=O)CCCCCCCCCCCCCCCCC(=O)O)C(=O)O)nn4)cc3)NC2=O)c1 [Compound 1005] ({CH2CO}-RY(Carboxymethyl)D[Phe(3-Me)]Y(X1)[Bip]Y(Carboxymethyl)[Orn][dL][Dab][Cha]VEC[Dab]-NH2; thioether N-14) | 7.41
